Measurements reported in patent US20200022370A1, “MICROBIOCIDAL OXADIAZOLE DERIVATIVES” (SYNGENTA PARTICIPATIONS AG, priority 2016, published 2020).

Columns and labels:
[1] = tested on: Puccinia recondita f. Sp. Tritici; test: Puccinia recondita f. sp. tritici / wheat / leaf disc preventative (brown rust); assay type: in vivo; conditions: foliar, 200 ppm in the applied formulation, wheat leaf segments cv. Kanzler, inoculated 1 day after application, vs untreated, 7 to 9 days after application, read-out: disease control
Method: (§1) Leaf disks or leaf segments of various plant species are cut from plants grown in a greenhouse. The cut leaf disks or segments are placed in multiwell plates (24-well format) onto water agar. The leaf disks are sprayed with a test solution before (preventative) or after (curative) inoculation. Compounds to be tested are prepared as DMSO solutions (max. 10 mg/ml) which are diluted to the appropriate concentration with 0.025% Tween20 just before spraying. The inoculated leaf disks or segments are incubated under defined conditions (temperature, relative humidity, light, etc.) according to the respective test system. A single evaluation of disease level is carried out 3 to 14 days after inoculation, depending on the pathosystem. Percent disease control relative to the untreated check leaf disks or segments is then calculated.
Example 1: Fungicidal Activity Against Puccinia recondita f. Sp. Tritici/Wheat/Leaf Disc Preventative (Brown Rust)
Wheat leaf segments cv. Kanzler were placed on agar in multiwell plates (24-well format) and sprayed with the Formulated test compound diluted in water. The leaf disks were inoculated with a spore suspension of the fungus 1 day after application. The inoculated leaf segments were incubated at 19° C. and 75% relative humidity (rh) under a light regime of 12 hours light/12 hours darkness in a climate cabinet and the activity of a compound was assessed as percent disease control compared to untreated when an appropriate level of disease damage appears in untreated check leaf segments (7 to 9 days after application).
(§2) The following compounds at 200 ppm in the applied Formulation give at least 80% disease control in this test when compared to untreated control leaf disks under the same conditions, which show extensive disease development.

[2] = tested on: Phakopsora pachyrhizi; test: Phakopsora pachyrhizi / soybean / leaf disc preventative (Asian soybean rust); assay type: in vivo; conditions: foliar, 200 ppm in the applied formulation, soybean leaf disks, inoculated one day after application, vs untreated, 12 to 14 days after application, read-out: disease control
Method: as §1
Example 3: Fungicidal Activity Against Phakopsora pachyrhizi/Soybean/Leaf Disc Preventative (Asian Soybean Rust)
Soybean leaf disks are placed on water agar in multiwell plates (24-well format) and sprayed with the Formulated test compound diluted in water. One day after application leaf discs are inoculated by spraying a spore suspension on the lower leaf surface. After an incubation period in a climate cabinet of 24-36 hours in darkness at 20° C. and 75% rh leaf disc are kept at 20° C. with 12 h light/day and 75% rh. The activity of a compound is assessed as percent disease control compared to untreated when an appropriate level of disease damage appears in untreated check leaf disks (12 to 14 days after application).
as §2

[3] = tested on: Glomerella lacenarium (Colletotrichum lacenarium); test: Glomerella lacenarium (Colletotrichum lacenarium) liquid culture / cucumber / preventative (anthracnose); assay type: cell-based; conditions: 20 ppm, liquid culture in PDB, 24° C., inhibition of growth measured photometrically 3 to 4 days after application, vs untreated, read-out: disease control
Method: Mycelia fragments or conidia suspensions of a fungus prepared either freshly from liquid cultures of the fungus or from cryogenic storage, are directly mixed into nutrient broth. DMSO solutions of the test compound (max. 10 mg/ml) are diluted with 0.025% Tween20 by a factor of 50 and 10 μl of this solution is pipetted into a microtiter plate (96-well format). The nutrient broth containing the fungal spores/mycelia fragments is then added to give an end concentration of the tested compound. The test plates are incubated in the dark at 24° C. and 96% relative humidity. The inhibition of fungal growth is determined photometrically after 2 to 7 days, depending on the pathosystem, and percent antifungal activity relative to the untreated check is calculated.
Example 4: Fungicidal Activity Against Glomerella lacenarium (Colletotrichum lacenarium) Liquid Culture/Cucumber/Preventative (Anthracnose)
Conidia of the fungus from cryogenic storage are directly mixed into nutrient broth (PDB-potato dextrose broth). After placing a (DMSO) solution of test compound into a microtiter plate (96-well format), the nutrient broth containing the fungal spores is added. The test plates are incubated at 24° C. and the inhibition of growth is measured photometrically 3 to 4 days after application.
The following compounds at 20 ppm in the applied Formulation give at least 80% disease control in this test when compared to untreated control under the same conditions, which show extensive disease development.

[4] = tested on: Puccinia recondita f. Sp. Tritici; test: Puccinia recondita f. sp. tritici / wheat / leaf disc curative (brown rust); assay type: in vivo; conditions: foliar, 200 ppm in the applied formulation, wheat leaf segments cv. Kanzler, compound applied 1 day after inoculation, vs untreated, 6 to 8 days after application, read-out: disease control
Method: as §1
Example 2: Fungicidal Activity Against Puccinia recondita f. sp. tritici/Wheat/Leaf Disc Curative (Brown Rust)
Wheat leaf segments cv. Kanzler are placed on agar in multiwell plates (24-well format). The leaf segments are then inoculated with a spore suspension of the fungus. Plates were stored in darkness at 19° C. and 75% relative humidity. The Formulated test compound diluted in water was applied 1 day after inoculation. The leaf segments were incubated at 19° C. and 75% relative humidity under a light regime of 12 hours light/12 hours darkness in a climate cabinet and the activity of a compound was assessed as percent disease control compared to untreated when an appropriate level of disease damage appears in untreated check leaf segments (6 to 8 days after application).
as §2

COc1ccc(CC(=O)Nc2ccc(-c3noc(C(F)(F)F)n3)cc2)cc1 [Compound 1.71, 2-(4-methoxyphenyl)-N-[4-[5-(trifluoromethyl)-1,2,4-oxadiazol-3-yl]phenyl]acetamide]
≥ 80%: pest or weed control at 200 ppm [1] | pest or weed control at 200 ppm [2] | inhibition of growth at 20 ppm [3]

O=C(Nc1ccc(-c2noc(C(F)(F)F)n2)cc1)C1CCCCO1 (stereo not drawn) [Compound 1.72, N-[4-[5-(trifluoromethyl)-1,2,4-oxadiazol-3-yl]phenyl] tetrahydropyran-2-carboxamide]
≥ 80%: pest or weed control at 200 ppm [1] | pest or weed control at 200 ppm [2] | inhibition of growth at 20 ppm [3]

O=C(CCO)Nc1ccc(-c2noc(C(F)(F)F)n2)cc1 [Compound 1.75, 3-hydroxy-N-[4-[5-(trifluoromethyl)-1,2,4-oxadiazol-3-yl]phenyl] propanamide]
≥ 80%: pest or weed control at 200 ppm [1] | pest or weed control at 200 ppm [4] | inhibition of growth at 20 ppm [3]

CSCC(C)C(=O)Nc1ccc(-c2noc(C(F)(F)F)n2)cc1 (stereo not drawn) [Compound 1.77, 2-methyl-3-methylsulfanyl-N-[4-[5-(trifluoromethyl)-1,2,4-oxadiazol-3-yl]phenyl] propanamide]
≥ 80%: pest or weed control at 200 ppm [1] | pest or weed control at 200 ppm [4] | inhibition of growth at 20 ppm [3]

CC(C)CC(=O)Nc1ccc(-c2noc(C(F)(F)F)n2)cc1 [Compound 1.85, 3-methyl-N-[4-[5-(trifluoromethyl)-1,2,4-oxadiazol-3-yl]phenyl]butanamide]
≥ 80%: pest or weed control at 200 ppm [1] | pest or weed control at 200 ppm [2] | inhibition of growth at 20 ppm [3]

CCCC(C)C(=O)Nc1ccc(-c2noc(C(F)(F)F)n2)cc1 (stereo not drawn) [Compound 1.86, 2-methyl-N-[4-[5-(trifluoromethyl)-1,2,4-oxadiazol-3-yl]phenyl] pentanamide]
≥ 80%: pest or weed control at 200 ppm [1] | pest or weed control at 200 ppm [2] | inhibition of growth at 20 ppm [3]

Cc1ccnn1CC(=O)Nc1ccc(-c2noc(C(F)(F)F)n2)cc1 [Compound 1.87, 2-(5-methylpyrazol-1-yl)-N-[4-[5-(trifluoromethyl)-1,2,4-oxadiazol-3-yl]phenyl]acetamide]
≥ 80%: pest or weed control at 200 ppm [1] | pest or weed control at 200 ppm [4] | inhibition of growth at 20 ppm [3]

CC1CC1C(=O)Nc1ccc(-c2noc(C(F)(F)F)n2)cc1 (stereo not drawn) [Compound 1.90, 2-methyl-N-[4-[5-(trifluoromethyl)-1,2,4-oxadiazol-3-yl]phenyl]cyclo-propanecarboxamide]
≥ 80%: pest or weed control at 200 ppm [1] | pest or weed control at 200 ppm [2] | inhibition of growth at 20 ppm [3]

CCCCC(=O)Nc1ccc(-c2noc(C(F)(F)F)n2)cc1 [Compound 1.92, N-[4-[5-(trifluoromethyl)-1,2,4-oxadiazol-3-yl]phenyl]pentanamide]
≥ 80%: pest or weed control at 200 ppm [1] | pest or weed control at 200 ppm [2] | inhibition of growth at 20 ppm [3]

CC(C)OCC(=O)Nc1ccc(-c2noc(C(F)(F)F)n2)cc1 [Compound 1.101, 2-isopropoxy-N-[4-[5-(trifluoromethyl)-1,2,4-oxadiazol-3-yl]phenyl]acetamide]
≥ 80%: pest or weed control at 200 ppm [1] | pest or weed control at 200 ppm [4] | inhibition of growth at 20 ppm [3]

O=C(Cn1cccn1)Nc1ccc(-c2noc(C(F)(F)F)n2)cc1 [Compound 1.104, 2-pyrazol-1-yl-N-[4-[5-(trifluoromethyl)-1,2,4-oxadiazol-3-yl]phenyl]acetamide]
≥ 80%: pest or weed control at 200 ppm [1] | pest or weed control at 200 ppm [4] | inhibition of growth at 20 ppm [3]

O=C(CCc1ccncc1)Nc1ccc(-c2noc(C(F)(F)F)n2)cc1 [Compound 1.107, 3-(4-pyridyl)-N-[4-[5-(trifluoromethyl)-1,2,4-oxadiazol-3-yl]phenyl] propanamide]
≥ 80%: pest or weed control at 200 ppm [1] | pest or weed control at 200 ppm [4] | inhibition of growth at 20 ppm [3]

O=C(Nc1ccc(-c2noc(C(F)(F)F)n2)cc1)C1CCOC1 (stereo not drawn) [Compound 1.116, N-[4-[5-(trifluoromethyl)-1,2,4-oxadiazol-3-yl]phenyl] tetrahydrofuran-3-carboxamide]
≥ 80%: pest or weed control at 200 ppm [1] | pest or weed control at 200 ppm [4] | inhibition of growth at 20 ppm [3]

O=C(Nc1ccc(-c2noc(C(F)(F)F)n2)cc1)C1CC1(F)F (stereo not drawn) [Compound 1.118, 2,2-difluoro-N-[4-[5-(trifluoromethyl)-1,2,4-oxadiazol-3-yl]phenyl]cyclo-propanecarboxamide]
≥ 80%: pest or weed control at 200 ppm [1] | pest or weed control at 200 ppm [2] | inhibition of growth at 20 ppm [3]

O=C(CC1CC1(F)F)Nc1ccc(-c2noc(C(F)(F)F)n2)cc1 (stereo not drawn) [Compound 1.124, 2-(2,2-difluorocyclopropyl)-N-[4-[5-(trifluoromethyl)-1,2,4-oxadiazol-3-yl]phenyl]acetamide]
≥ 80%: pest or weed control at 200 ppm [1] | pest or weed control at 200 ppm [2] | inhibition of growth at 20 ppm [3]

O=C(CC(F)(F)F)Nc1ccc(-c2noc(C(F)(F)F)n2)cc1 [Compound 1.125, 3,3,3-trifluoro-N-[4-[5-(trifluoromethyl)-1,2,4-oxadiazol-3-yl]phenyl] propanamide]
≥ 80%: pest or weed control at 200 ppm [1] | pest or weed control at 200 ppm [2] | inhibition of growth at 20 ppm [3]

CON(C)C(=O)N(C)c1ccc(-c2noc(C(F)(F)F)n2)cc1 [Compound 1.126, 1-methoxy-1,3-dimethyl-3-[4-[5-(trifluoromethyl)-1,2,4-oxadiazol-3-yl]phenyl]urea]
≥ 80%: pest or weed control at 200 ppm [1] | pest or weed control at 200 ppm [4] | inhibition of growth at 20 ppm [3]

COCC(=O)N(C)c1ccc(-c2noc(C(F)(F)F)n2)cc1 [Compound 1.129, 2-methoxy-N-methyl-N-[4-[5-(trifluoromethyl)-1,2,4-oxadiazol-3-yl]phenyl]acetamide]
≥ 80%: pest or weed control at 200 ppm [1] | pest or weed control at 200 ppm [4] | inhibition of growth at 20 ppm [3]

CC1(C(=O)Nc2ccc(-c3noc(C(F)(F)F)n3)cc2)CC1 [Compound 2.11, 1-methyl-N-[4-[5-(trifluoromethyl)-1,2,4-oxadiazol-3-yl]phenyl] cyclopropane-carboxamide]
≥ 80%: pest or weed control at 200 ppm [1] | pest or weed control at 200 ppm [2] | inhibition of growth at 20 ppm [3]

O=C(Nc1ccc(-c2noc(C(F)(F)F)n2)cc1)C1CC1 [Compound 2.15, N-[4-[5-(trifluoromethyl)-1,2,4-oxadiazol-3-yl]phenyl] cyclopropane-carboxamide]
≥ 80%: pest or weed control at 200 ppm [1] | pest or weed control at 200 ppm [4] | inhibition of growth at 20 ppm [3]

CC(=O)N(C)c1ccc(-c2noc(C(F)(F)F)n2)cc1 [Compound 2.18, N-methyl-N-[4-[5-(trifluoromethyl)-1,2,4-oxadiazol-3-yl]phenyl] acetamide]
≥ 80%: pest or weed control at 200 ppm [1] | pest or weed control at 200 ppm [4] | inhibition of growth at 20 ppm [3]
